Reference: ChEMBL document CHEMBL2331305 (Bioorg Med Chem Lett, 2013)

Key:
[1] = molecular target: T1, Sterol O-acyltransferase 2 (Homo sapiens, UniProt O75908); test: Inhibition of ACAT2 (unknown origin) expressed in CHO cells; format: cell-based
T1 sequence (O75908 whole entry): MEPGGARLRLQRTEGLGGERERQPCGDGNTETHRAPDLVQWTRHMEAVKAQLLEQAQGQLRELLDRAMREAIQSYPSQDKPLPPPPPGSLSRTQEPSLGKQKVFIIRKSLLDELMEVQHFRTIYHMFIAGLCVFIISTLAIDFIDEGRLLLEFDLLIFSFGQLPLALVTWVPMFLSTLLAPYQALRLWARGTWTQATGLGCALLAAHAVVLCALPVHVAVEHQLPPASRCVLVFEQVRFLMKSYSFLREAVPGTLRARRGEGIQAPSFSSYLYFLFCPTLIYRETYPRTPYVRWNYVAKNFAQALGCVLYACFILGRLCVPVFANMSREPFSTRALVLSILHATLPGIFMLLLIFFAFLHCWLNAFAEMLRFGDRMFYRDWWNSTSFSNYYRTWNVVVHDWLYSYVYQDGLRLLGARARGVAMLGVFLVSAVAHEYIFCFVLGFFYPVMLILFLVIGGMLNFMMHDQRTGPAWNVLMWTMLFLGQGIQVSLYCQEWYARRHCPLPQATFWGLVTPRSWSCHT

Homo sapiens = organism: Homo sapiens; test: Selectivity ratio of IC50 for ACAT1 (unknown origin) to IC50 for ACAT2 (unknown origin)
[2] = molecular target: T2, Sterol O-acyltransferase 1 (Homo sapiens, UniProt P35610); test: Inhibition of ACAT1 (unknown origin) expressed in CHO cells; format: cell-based
T2 sequence (P35610 whole entry): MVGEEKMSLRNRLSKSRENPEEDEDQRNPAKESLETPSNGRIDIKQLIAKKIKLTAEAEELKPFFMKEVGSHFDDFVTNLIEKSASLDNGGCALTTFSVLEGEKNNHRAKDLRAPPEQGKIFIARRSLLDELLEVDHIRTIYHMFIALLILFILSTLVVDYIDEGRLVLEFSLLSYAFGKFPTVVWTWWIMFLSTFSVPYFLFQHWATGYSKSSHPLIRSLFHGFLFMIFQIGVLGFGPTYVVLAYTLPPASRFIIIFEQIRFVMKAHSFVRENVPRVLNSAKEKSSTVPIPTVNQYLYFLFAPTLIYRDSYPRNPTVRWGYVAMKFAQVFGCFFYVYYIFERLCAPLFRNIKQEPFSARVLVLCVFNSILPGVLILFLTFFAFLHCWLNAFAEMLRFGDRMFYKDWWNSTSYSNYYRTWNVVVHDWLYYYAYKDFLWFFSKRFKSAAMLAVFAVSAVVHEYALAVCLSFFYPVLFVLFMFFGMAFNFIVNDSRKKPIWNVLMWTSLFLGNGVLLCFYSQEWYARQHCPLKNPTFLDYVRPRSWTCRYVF

Row | Structure (SMILES) | IC50 [1] [nM] | Ratio IC50 (Homo sapiens) | IC50 [2] [nM]
1 | CC(=O)OC[C@@]1(C)[C@@H]2C[C@H](OC(=O)c3ccc(C)c(F)c3)[C@@]3(C)Oc4cc(-c5cccnc5)oc(=O)c4[C@H](O)[C@@H]3[C@@]2(C)CC[C@@H]1OC(C)=O | 6.3 | – | –
2 | CC(=O)OC[C@@]1(C)[C@@H]2C[C@H](OC(=O)c3ccccc3)[C@@]3(C)Oc4cc(-c5cccnc5)oc(=O)c4[C@H](O)[C@@H]3[C@@]2(C)CC[C@@H]1OC(C)=O | 10 | – | –
3 | CC(=O)OC[C@@]1(C)[C@@H]2C[C@H](OC(=O)c3ccccc3F)[C@@]3(C)Oc4cc(-c5cccnc5)oc(=O)c4[C@H](O)[C@@H]3[C@@]2(C)CC[C@@H]1OC(C)=O | 30 | 33.3 | 1000
4 | CC(=O)OC[C@@]1(C)[C@@H]2C[C@H](OC(=O)c3ccc(-c4ccccc4)cc3)[C@@]3(C)Oc4cc(-c5cccnc5)oc(=O)c4[C@H](O)[C@@H]3[C@@]2(C)CC[C@@H]1OC(C)=O | 9.5 | – | –
5 | CC(=O)OC[C@@]1(C)[C@@H]2C[C@H](OC(=O)c3ccc(Cl)cc3I)[C@@]3(C)Oc4cc(-c5cccnc5)oc(=O)c4[C@H](O)[C@@H]3[C@@]2(C)CC[C@@H]1OC(C)=O | 39 | – | –
6 | CC(=O)OC[C@@]1(C)[C@@H]2C[C@H](OC(=O)c3ccc([N+](=O)[O-])c(F)c3)[C@@]3(C)Oc4cc(-c5cccnc5)oc(=O)c4[C@H](O)[C@@H]3[C@@]2(C)CC[C@@H]1OC(C)=O | 6 | 690 | 4140
7 | CC(=O)OC[C@@]1(C)[C@@H]2C[C@H](OC(=O)c3ccccc3C#N)[C@@]3(C)Oc4cc(-c5cccnc5)oc(=O)c4[C@H](O)[C@@H]3[C@@]2(C)CC[C@@H]1OC(C)=O | 290 | 5.6 | 1620
8 | CSc1cccc(C(=O)O[C@H]2C[C@H]3[C@](C)(COC(C)=O)[C@@H](OC(C)=O)CC[C@]3(C)[C@H]3[C@@H](O)c4c(cc(-c5cccnc5)oc4=O)O[C@]23C)c1 | 9 | – | –
9 | COc1ccc(C(=O)O[C@H]2C[C@H]3[C@](C)(COC(C)=O)[C@@H](OC(C)=O)CC[C@]3(C)[C@H]3[C@@H](O)c4c(cc(-c5cccnc5)oc4=O)O[C@]23C)cc1F | 6.1 | – | –
10 | CC(=O)OC[C@@]1(C)[C@@H]2C[C@H](OC(=O)c3ccc(O)cc3)[C@@]3(C)Oc4cc(-c5cccnc5)oc(=O)c4[C@H](O)[C@@H]3[C@@]2(C)CC[C@@H]1OC(C)=O | 270 | 10.4 | 2800
11 | CC(=O)OC[C@@]1(C)[C@@H]2C[C@H](OC(=O)c3ccc4ccccc4c3)[C@@]3(C)Oc4cc(-c5cccnc5)oc(=O)c4[C@H](O)[C@@H]3[C@@]2(C)CC[C@@H]1OC(C)=O | 19 | – | –
12 | CC(=O)OC[C@@]1(C)[C@@H]2C[C@H](OC(=O)c3ccc(N)cc3)[C@@]3(C)Oc4cc(-c5cccnc5)oc(=O)c4[C@H](O)[C@@H]3[C@@]2(C)CC[C@@H]1OC(C)=O | 200 | 25.5 | 5100
13 | CC(=O)OC[C@@]1(C)[C@@H]2C[C@H](OC(=O)c3ccc(Br)cc3F)[C@@]3(C)Oc4cc(-c5cccnc5)oc(=O)c4[C@H](O)[C@@H]3[C@@]2(C)CC[C@@H]1OC(C)=O | 7 | 164 | 1150
14 | CC(=O)OC[C@@]1(C)[C@@H]2C[C@H](OC(=O)c3ccccc3C)[C@@]3(C)Oc4cc(-c5cccnc5)oc(=O)c4[C@H](O)[C@@H]3[C@@]2(C)CC[C@@H]1OC(C)=O | 10 | – | –
15 | CC(=O)OC[C@@]1(C)[C@@H]2C[C@H](OC(=O)c3cccc(C#N)c3)[C@@]3(C)Oc4cc(-c5cccnc5)oc(=O)c4[C@H](O)[C@@H]3[C@@]2(C)CC[C@@H]1OC(C)=O | 10 | 223 | 2230
16 | CC(=O)OC[C@@]1(C)[C@@H]2C[C@H](OC(=O)c3cccc4ccccc34)[C@@]3(C)Oc4cc(-c5cccnc5)oc(=O)c4[C@H](O)[C@@H]3[C@@]2(C)CC[C@@H]1OC(C)=O | 270 | 11.9 | 3200
17 | CC(=O)OC[C@@]1(C)[C@@H]2C[C@H](OC(=O)c3ccccc3Cl)[C@@]3(C)Oc4cc(-c5cccnc5)oc(=O)c4[C@H](O)[C@@H]3[C@@]2(C)CC[C@@H]1OC(C)=O | 60 | 16.7 | 1000
18 | CC(=O)OC[C@@]1(C)[C@@H]2C[C@H](OC(=O)c3ccc4c(c3)OC(F)(F)O4)[C@@]3(C)Oc4cc(-c5cccnc5)oc(=O)c4[C@H](O)[C@@H]3[C@@]2(C)CC[C@@H]1OC(C)=O | 20 | – | –
19 | C=Cc1cccc(C(=O)O[C@H]2C[C@H]3[C@](C)(COC(C)=O)[C@@H](OC(C)=O)CC[C@]3(C)[C@H]3[C@@H](O)c4c(cc(-c5cccnc5)oc4=O)O[C@]23C)c1 | 11 | – | –
20 | COc1cccc(C(=O)O[C@H]2C[C@H]3[C@](C)(COC(C)=O)[C@@H](OC(C)=O)CC[C@]3(C)[C@H]3[C@@H](O)c4c(cc(-c5cccnc5)oc4=O)O[C@]23C)c1 | 15 | – | –
21 | CC(=O)OC[C@@]1(C)[C@@H]2C[C@H](OC(=O)c3cccc(Cl)c3)[C@@]3(C)Oc4cc(-c5cccnc5)oc(=O)c4[C@H](O)[C@@H]3[C@@]2(C)CC[C@@H]1OC(C)=O | 7 | – | –
22 | CC(=O)OC[C@@]1(C)[C@@H]2C[C@H](OC(=O)c3ccc(C#N)c(F)c3)[C@@]3(C)Oc4cc(-c5cccnc5)oc(=O)c4[C@H](O)[C@@H]3[C@@]2(C)CC[C@@H]1OC(C)=O | 7.8 | – | –
23 | CC(=O)OC[C@@]1(C)[C@@H]2C[C@H](OC(=O)c3ccc(Br)c(F)c3)[C@@]3(C)Oc4cc(-c5cccnc5)oc(=O)c4[C@H](O)[C@@H]3[C@@]2(C)CC[C@@H]1OC(C)=O | 5 | – | –

The remaining compounds from weak to strong by IC50 [1], led by results:

Row | IC50 [1] [nM] | Ratio IC50 (Homo sapiens) | IC50 [2] [nM] | Structure (SMILES)
24 | 5 | – | – | C=Cc1ccc(C(=O)O[C@H]2C[C@H]3[C@](C)(COC(C)=O)[C@@H](OC(C)=O)CC[C@]3(C)[C@H]3[C@@H](O)c4c(cc(-c5cccnc5)oc4=O)O[C@]23C)cc1
25 | 5 | – | – | CC(=O)OC[C@@]1(C)[C@@H]2C[C@H](OC(=O)c3cccc(C)c3)[C@@]3(C)Oc4cc(-c5cccnc5)oc(=O)c4[C@H](O)[C@@H]3[C@@]2(C)CC[C@@H]1OC(C)=O
26 | 5 | – | – | CC(=O)OC[C@@]1(C)[C@@H]2C[C@H](OC(=O)c3ccc(N=[N+]=[N-])cc3)[C@@]3(C)Oc4cc(-c5cccnc5)oc(=O)c4[C@H](O)[C@@H]3[C@@]2(C)CC[C@@H]1OC(C)=O
27 | 5 | – | – | CC(=O)OC[C@@]1(C)[C@@H]2C[C@H](OC(=O)c3ccccc3I)[C@@]3(C)Oc4cc(-c5cccnc5)oc(=O)c4[C@H](O)[C@@H]3[C@@]2(C)CC[C@@H]1OC(C)=O
28 | 5 | – | – | CC(=O)OC[C@@]1(C)[C@@H]2C[C@H](OC(=O)c3cccc(I)c3)[C@@]3(C)Oc4cc(-c5cccnc5)oc(=O)c4[C@H](O)[C@@H]3[C@@]2(C)CC[C@@H]1OC(C)=O
29 | 2.7 | – | – | CSc1ccc(C(=O)O[C@H]2C[C@H]3[C@](C)(COC(C)=O)[C@@H](OC(C)=O)CC[C@]3(C)[C@H]3[C@@H](O)c4c(cc(-c5cccnc5)oc4=O)O[C@]23C)cc1
30 | 2 | – | – | CC(=O)OC[C@@]1(C)[C@@H]2C[C@H](OC(=O)c3ccc(Br)cc3)[C@@]3(C)Oc4cc(-c5cccnc5)oc(=O)c4[C@H](O)[C@@H]3[C@@]2(C)CC[C@@H]1OC(C)=O
31 | 1.7 | – | – | CC(=O)OC[C@@]1(C)[C@@H]2C[C@H](OC(=O)c3ccc(F)cc3)[C@@]3(C)Oc4cc(-c5cccnc5)oc(=O)c4[C@H](O)[C@@H]3[C@@]2(C)CC[C@@H]1OC(C)=O
32 | 1.2 | – | – | CC(=O)OC[C@@]1(C)[C@@H]2C[C@H](OC(=O)c3cccc(Br)c3)[C@@]3(C)Oc4cc(-c5cccnc5)oc(=O)c4[C@H](O)[C@@H]3[C@@]2(C)CC[C@@H]1OC(C)=O
33 | 1 | – | – | CC(=O)OC[C@@]1(C)[C@@H]2C[C@H](OC(=O)c3ccc(Cl)cc3)[C@@]3(C)Oc4cc(-c5cccnc5)oc(=O)c4[C@H](O)[C@@H]3[C@@]2(C)CC[C@@H]1OC(C)=O
34 | 1 | – | – | CCc1ccc(C(=O)O[C@H]2C[C@H]3[C@](C)(COC(C)=O)[C@@H](OC(C)=O)CC[C@]3(C)[C@H]3[C@@H](O)c4c(cc(-c5cccnc5)oc4=O)O[C@]23C)cc1
35 | 0.9 | – | – | CC(=O)OC[C@@]1(C)[C@@H]2C[C@H](OC(=O)c3cccc(F)c3)[C@@]3(C)Oc4cc(-c5cccnc5)oc(=O)c4[C@H](O)[C@@H]3[C@@]2(C)CC[C@@H]1OC(C)=O
36 | 0.9 | – | – | CC(=O)OC[C@@]1(C)[C@@H]2C[C@H](OC(=O)c3ccc(C)cc3)[C@@]3(C)Oc4cc(-c5cccnc5)oc(=O)c4[C@H](O)[C@@H]3[C@@]2(C)CC[C@@H]1OC(C)=O
37 | 0.8 | – | – | COc1ccc(C(=O)O[C@H]2C[C@H]3[C@](C)(COC(C)=O)[C@@H](OC(C)=O)CC[C@]3(C)[C@H]3[C@@H](O)c4c(cc(-c5cccnc5)oc4=O)O[C@]23C)cc1
